Assay results: EP3694851B1, “ENVIRONMENTALLY DEGRADABLE QUINOLONE ANTIBIOTICS HAVING A HEMIAMINAL STRUCTURAL UNIT” (priority 2017, dated 2019)
Converted amounts (≈) assume the structure as drawn.

How the values were obtained:
[1] = Stability test at low pH (Marbofloxacin); format: physicochemical
[2] = system: Escherichia coli K12 ATCC 23716; test: Growth inhibition in E. coli (96-well plate, 4 h at 37°C, absorption at 600 nm); format: cell-based; details: ATCC23716, 4 h, E. coli (ATCC 23716), activity in the range of medium-strength fluoroquinolones, Figure 4
Method: Escherichia coli K12 ATCC 23716 wurde von DSMZ GmbH (Braunschweig, Germany) erhalten.
Die Testsubstanzen wurden in Wasser verdünnt und auf einer 96-well-Platte zur Bakteriensuspension (in 2x Bakterienmedium (10 g Pepton and 6 g Fleischextrakt in 1 Liter)) gegeben, so dass die Endkonzentration des Mediums 1x war. Die Platte wurde 4h bei 37°C inkubiert. Die Zelldichte wurde photometrisch durch Messung der Absorption bei 600 nm bestimmt. Die Wachstumshemmung in Prozent der unbehandelten Kontrollen gegen die Konzentration der Testsubstanz aufgetragen.

[3] = Abiotic hydrolysis (pH-dependent, phosphate-buffered saline, HPLC); details: for Abspaltung des labilen Linkers: Figures 6a and 6b; for Abbau des Hemiaminal-Restes: within 7 days
Method: Der pH-Wert wurde auf pH 6, pH 7,4 oder pH 9 eingestellt. Die Ansätze wurden bei 37 °C für pH 6 und 7,4 und bei Raumtemperatur für pH 9 unter Schütteln (250 rpm) für 28 Tage inkubiert. An Tag 0, 1, 7, 14, 21 und 28 wurden Proben (700µL) für die HPLC Analyse entnommen. Der Quotient der Ausgangskonzentration co durch die Konzentration am jeweiligen Zeitpunkt (ct) wurde kalkuliert und als natürlicher Logarithmus gegen die Inkubationszeit aufgetragen.
Eine NUCLEODUR® RP-C18 (CC 125/4 100-5µm C18 ec) Säule und mobile Phasen bestehend aus 0.1 % Ameisensäure in hochreinem Wasser (CH2O2: Solution A) and 100 % Acetonitril (CH3CN: Solution B) wurden verwendet. Die Flußrate wurde auf 0.5 mL min^-1 eingestellt. Die Temperatur des Säulenofens wurde auf 25 °C eingestellt und das Injektionsvolumen betrug 10 µL. […] Die Testsubstanzen wurden durch einen UV/Vis Detektor bei 270 nm detektiert. Die Fließgradientenmethode wurde angewendet wie in Tabelle 1 aufgelistet. Tabelle 1 : Fließgradientenbedingungen zur chromatographischen Analyse der Testsubstanzen

[4] = system: E. faecalis ATCC 29121, P. aeruginosa ATCC 27853, S. aureus ATCC 29213, E. coli ATCC 25922, S. aureus ATCC 43300, K. pneumoniae ATCC 700603, A. baumanii ATCC …; test: Minimal inhibitory concentrations in various bacterial strains (broth microdilution); format: cell-based
Source text: Minimale Hemmkonzentrationen in verschiedenen Bakterienstämmen: Die antibiotische Aktivität wurde mittels Durchführung der Broth-Mikroverdünnungsmethode ermittelt (Cockerill et al., 2012, siehe Literatur). Es wurden die folgenden Bakterienstämme verwendet: Staphylococcus aureus (ATCC 29213), Enterococcus faecalis (ATCC 29212), Escherichia coli (ATCC 25922) und Pseudomonas aeruginosa (ATCC 27853), sowie S. aureus (ATCC 43300), K. pneumoniae (ATCC 700603), A. baumanii (ATCC 19606). Die Bestimmungen der minimalen Hemmkonzentrationen wurden durch zwei unabhängige Laboratorien durchgeführt.
Bakterienzellen wurden bei einer Zelldichte von 2 - 8 × 10^5 cfu/ml in 200 µl Mueller-Hinton-Brothmedium verdünnt. Die Ansätze enthielten eine Verdünnungsreihe der Testsubstanzen. Diese inokulierten 96-well Platten wurden für 18 h bei 36°C inkubiert. Die minimale Hemmkonzentration wurde ermittelt durch visuelle Abschätzung der niedrigsten Konzentration, die die Bakterien vollständig gehemmt hatte.

[5] = system: Humane embryonale Nierenzellen (HEK293); test: Cytotoxicity test in HEK293 cells; format: cell-based, human; details: Figure 3
Method: Humane embryonale Nierenzellen (HEK293) wurden in 384-well-Platten mit einer Dichte von 6000 Zellen/well in einem finalen Volumen von 50 µl mit der gewünschten Konzentration der Testsubstanz ausgesät. DMEM mit 10% fötalem Rinderserum (FBS) wurde als Wachstumsmedium verwendet. Die Zellen wurden zusammen mit den Testsubstanzen für 20 h bei 37 °C mit 5% COz inkubiert.

[6] = system: Vibrio fischeri NRRL-B-11177; test: Luminescence inhibition in V. fischeri (luminescent bacteria test); format: cell-based; details: after cleavage of the linker, compared with Verbindung 1; Figure 5
Source text: Die antibiotische Aktivität in V. fischeri wurden in einem Leuchtbakterientest (LBT) mit Vibrio fischeri NRRL-B-11177 (Hach-Lange GmbH, Düsseldorf, Germany) untersucht. Die Durchführung des LBT erfolgte nach dem modifizierten Protokoll von Menz et al. (2013), siehe Literaturliste.

**Q.** For CN1CCN(c2c(F)cc3c(=O)c(C(=O)O)cn4c3c2OCN4C)CC1 [Marbofloxacin], which “Instabilität bei niedrigem pH” value [1] is on record?
**A.** kaum Instabilität beobachtet

**Q.** For O=C(O)c1cn(C2CCCO2)c2cc(N3CCNCC3)c(F)cc2c1=O (stereo not drawn) [Verbindung 1], which MIC [2] is on record?
**A.** 0.1 to 1 µg/mL (≈ 0.277 to 2.77 µM)

**Q.** What about the “Abspaltung des labilen Linkers” value ([3]; at low pH) of the same compound?
**A.** schnell

**Q.** What about the “Abbau des Hemiaminal-Restes” value ([3]; low pH of four (e.g. in urine)) of the same compound?
**A.** zum größten Teil abgebaut

**Q.** What about the “Abbau des Hemiaminal-Restes” value ([3]; physiological conditions (pH= 7,4)) of the same compound?
**A.** nur langsam abgebaut

**Q.** And the “Abspaltung des labilen Linkers” value ([3]; under physiological conditions)?
**A.** langsam

**Q.** And the “Aktivität in anderen pathogenen Bakterien” value ([4]; other pathogenic bacteria, compared with quinolone generations)?
**A.** über den Chinolonen der ersten Generation, aber unterhalb etablierter Fluorchinolone der zweiten Generation

**Q.** What about the “antibakterielle Aktivität” value ([4]; strains of E. coli, K. pneumoniae, P. aeruginosa and V. fischeri, compared with medium-strength fluoroquinolones) of the same compound?
**A.** zu mittelstarken Fluorchinolonen eine vergleichbare antibakterielle Aktivität

**Q.** And the “Zytotoxizität in humanen Zellen (HEK 293)” value [5]?
**A.** keine Hinweise auf einen Zytotoxizität

**Q.** For O=C(O)c1cnc2cc(N3CCNCC3)c(F)cc2c1O [Cip-d-CP, reference compound], which “antibiotische Aktivität in V. fischeri (Leuchthemmung)” value [6] is on record?
**A.** deutliche Abschwächung der antibiotischen Aktivität nach Abspaltung des Linkers

**Q.** What about the “Instabilität unter den gewählten pH-Bedingungen” value ([3]; chosen pH conditions (pH 6, pH 7,4 at 37°C; pH 9 at room temperature; 28 days)) of the same compound?
**A.** Weder das verbleibende Fragment noch die Ausgangssubstanz Ciprofloxacin waren unter den gewählten pH-Bedingungen instabil

**Q.** And the “antibiotische Aktivität (MHK) im Vergleich zur Ausgangssubstanz” value ([4]; fragment after cleavage of the linker compared with Verbindung 1, Figures 2 and 3)?
**A.** deutlich schwächer aktiv als die Ausgangssubstanz
